The record followed here is publication PMC9953468, “In Silico, In Vitro, and Ex Vivo Biological Activity of Some Novel Mebeverine Precursors” (Biomedicines, 2023).

Series [1] is described as follows: MTT cell viability assay. Type of series: cell-based, human. The settings on record: human, ± SD, read-out: In vitro cytotoxicity (IC50). How it is done: (§1) In order to evaluate the in vitro biocompatibility of the experimental compounds, a series of cell viability assays were performed against human malignant leukemic cell lines (LAMA-84, K-562) as well as normal murine fibroblast cells (CCL-1). All cell lines were purchased from the German Collection of Microorganisms and Cell Cultures (DSMZ GmbH, Braunschweig, Germany). Cell cultures were cultivated in a growth medium RPMI 1640 supplemented with 10% fetal bovine serum (FBS), 5% L-glutamine, and incubated under standard conditions of 37 °C and 5% humidified CO2 atmosphere.
(§2) The experimental design involved a number of cytotoxicity assays that measured cell growth inhibition by the newly synthesized compounds. Cell viability was evaluated using a standard MTT-based colorimetric assay. Exponential-phased cells were harvested and seeded (100 μL/well) in 96-well plates at the appropriate density (3 × 10^5) for the suspension cultures (LAMA-84 and K-562) and 1.5 × 10^5 for the adherent one (CCL-1). Cells were treated and incubated with various concentrations of the experimental compounds in the concentration range of 400-6.25 µM. After exposure time of 72 h, a filter-sterilized MTT substrate solution (5 mg/mL in PBS) was added to each well of the culture plate. A further 1–4 h incubation allowed for the formation of purple insoluble formazan precipitates. The latter were dissolved in isopropyl alcohol solution containing 5% formic acid prior to absorbance measurement at 550 nm using a microplate reader (Labexim LMR-1). Collected absorbance values were blanked against MTT and isopropanol solution and normalized to the mean value of the untreated control (100% cell viability). Semi-logarithmic “dose–response” curves were constructed and the half-inhibitory concentrations of the screened compounds against each tested cell line were calculated. Values of p ≤ 0.05 were considered statistically significant.

Series [2] concerns SM preparations from the corpus gastric muscle. As to the kind of experiment: Ex vivo bioelectrical activity of smooth muscle preparations, single sucrose gap method. More on the design: species or system Wistar rats. Particulars: 5 × 10^−5 M; for Amplitude of slow waves, Measured value / Amplitude of spike potentials, Measured value / Number of slow waves, Measured value / Number of spike potentials, Measured value: 10 min, n = 7, mean ± SEM; for effect on bioelectrical activity (slow waves, spike potentials): in words; for Changes in the membrane potential: base activity taken as 100%, ↑ depolarization, ↓ hyperpolarization. How it is done:
Adult male Wistar rats weighing 280–300 g were used. Animals were housed in standard laboratory conditions (23 to 25 °C, 50–55% humidity, 12/12 h light/dark cycle), while food and water were provided ad libitum.
Circular SM preparations were dissected from the corpus gastric muscle (26–28 mm long and 0.8–0.9 mm wide; without mucosa). Two or three muscle strips were taken from the rat stomach. The number of SM preparations used for each data point is indicated by n. After dissection, the tissues must prevent loss of viability, so during the dissection, the tissues were systematically moistened with a solution (NaCl:KCl:CaCl2 in ratio 27.2:1.1:1) prepared at 4 °C.
The BEA of SM preparations was investigated by means of the single sucrose gap method with silver non-polarizable freshly chlorinated electrodes. The muscle strips were divided into 3 zones: two electrode sections were flushed with isotonic KCl solution and Krebs solution (pH 7.3), respectively, and separated by a sucrose layer of high electric resistance. Krebs contained the following (in mM): NaCl 120; KCl 5.9; CaCl2 2.5; MgCl2 1.2; NaH2PO4 1.2; NaHCO3 15.4; glucose 11.5. All the ingredients for this solution were of analytical grade and obtained from Merck (Darmstadt, Germany). Deionized water (18.2 mX/cm^2) was used thoroughly. The KCl solution is similar to the Krebs solution but with an equimolar substitution of NaCl with KCl. An isotonic sucrose solution, due to its very high specific resistance (about 10^6 Ω·cm), provides the best possible separation of the sucrose solution from the physiological solution in the “normal” pool, on the one hand, and the solution providing a zero value of the membrane potential in the pool with another recording electrode.
The inflow rate of each solution (Krebs, KCl, and isotonic sucrose solution) was controlled by a needle valve and continuously aerated with a mixture of 95% O2 and 5% CO2, and the temperature was maintained at 37 °C. A potential difference between the two end sections of the gap (control conditions) was achieved by means of silver non-polarizable, freshly chlorinated electrodes and after a 40-min period of adaptation and stabilization was accepted as the initial (control). The Krebs solution was changed several times during the adaptation period. The viability of the SM preparations was periodically tested by treatment with 1 × 10^−6 M ACh.
The membrane potential value was visualized by means of a Linseis recorder (Selb, Germany). A pair of measuring electrodes is located on both sides of the sucrose sections. The pH (pH 7.3; 37 °C) of the Krebs bathing solution was measured before each experiment by pH-meter HI5521 (Hanna Instruments Inc., Woonsocket, RI, USA). […]
The new substances were dissolved initially in dimethyl sulphoxide (DMSO) to prepare a 5 × 10^−2 M stock solution. Further dilutions were made in distilled deionized water and were applied by adding aliquots of their concentrated solutions to the tissue bath.

Series [3] has as its system 5-HT3 receptor. As to the kind of experiment: Immunohistochemical analysis of 5-HT3 expression in gastric SM strips. Details: species or system Wistar rats; key to 5-HT3 expression, 5-HT / 5-HT3 expression, Response to Compound: −: absent; +: low; ++: moderate; +++: strong. The settings on record: for 5-HT3 expression, Response to Compound: SM preparations incubated with the compound; for 5-HT3 expression in SM preparations: immunohistochemical staining after 1 h incubation, in words. The method, then:
[…] Then, each SM strip was fixed in 10% neutral buffer formalin for 24–48 h and submitted for standard processing with hematoxylin and eosin staining.
The SM fragments from a rat’s gastric wall were fixed in a 10% neutral formalin solution and embedded in paraffin. Paraffin sections of 5 μm thickness were subjected to hematoxylin and eosin (H-E) staining for histochemical analysis.
Sections of the SM fragments from the wall of a rat’s stomach with a thickness of 5 µm were deparaffinized, then subjected to antigenic detection of the epitopes with citrate buffer, and an endogenous peroxidase blockade was made with hydrogen […] 3%, a kit was used to block the endogenous biotin, and a reagent was used to block non-specific binding (Superblock, Scy Tek, Santa Cruz Biotech. Inc. Heidelberg, Germany) follows incubate for 24 h (at 4 °C) with monoclonal mouse anti-5-HT3, next incubated with a secondary antibody: biotinylated anti-rabbit for 10 min at room temperature. The reaction was visualized with 3,3′-diaminobenzidine tetrachloride and counterstained with Mayer’s hematoxylin.
A quantitative and statistical analysis of immunohistochemical reaction using the Olympus DP-Soft image system (version 4.1 for Windows) was carried out on a Microphot-SA (Nikon, Japan) microscope equipped with a Camedia-5050 Z digital camera (Olympus, Japan). The analysis was performed on sections from the SM strips from the stomach of Wistar rats (n = 6 for each group). Five sections of the SM strips were measured, and the percentage of cells expressing 5-HT3 in the circular and longitudinal layer of SM cells, as well as in the myenteric plexus of the stomach, was determined. Each antibody was analyzed for five fields, in each of them the average number of cells with positive unit area response at ×200 magnification.

Series [4] is described as follows: MTT cell viability assay. The series is classed as cell-based. The settings on record: mouse, CCL-1 normal fibroblast cells, CCL-1, normal murine fibroblast cells, read-out: In vitro cytotoxicity (IC50). How it is done:
as §1, §2
A general note: Formazan colour is commonly taken as a measure of viable cells.

[5] abbreviates: K-562 cells (blast phase chronic myeloid leukemia), K-562, Blast phase CML (bcr-abl+).
The mark [6] stands for this setting: LAMA-84, CML in blast crisis (bcr-abl+).

Where “and” joins values, the source holds several entries; their conditions need not be identical. Equal entries are not always repeated. Entries after “also recorded” stand apart in the source; their conditions may differ. Where two headings read alike, the source gives them in different places. Marks after values point to notes of the source that are not given here. Bounds are passed on as bounds.

Turning to `CC(C)C(Cc1ccccc1)NC(=O)c1ccccc1` (stereo not shown) [Compound 4b, N-(3-methyl-1-phenylbutan-2-yl)benzamide], in series [1] (setting [5]), the IC50 at 72 h worked out at 329 ± 20.4 µM. Besides, the IC50 at 72 h in series [1] (setting [6]) was determined as 265 ± 20.2 µM. In addition, in series [2], the “Amplitude of slow waves, Measured value” turned out to be 5.09 ± 0.10 mV; the “Amplitude of spike potentials, Measured value” (shortened to “Amplitude of spike potentials”) amounted to 1.40 ± 0.12 mV; the “Number of slow waves, Measured value” was 4.50 ± 0.49 min⁻¹; the “Number of spike potentials, Measured value” (shortened to “Number of spike potentials”) was found to be 22.28 ± 0.18 min⁻¹. Moreover, in series [2], the “effect on bioelectrical activity (slow waves, spike potentials)” value is recorded as “do not affect the BEA” and the “Changes in the membrane potential” value stood at 0%. In addition, in series [3], the “5-HT3 expression, Response to Compound” value is given as “−” and the “5-HT3 expression in SM preparations” value is “no modulation on the 5-HT3R expression; also recorded: no 5-HT3 expression observed”. For the same compound, the IC50 at 72 h in series [4] is above 300 µM.

Turning to `CC(C)C(Cc1ccccc1)NC(=O)c1ccccc1Cl` (stereo not shown) [Compound 4c, 2-Chloro-N-(3-methyl-1-phenylbutan-2-yl)benzamide], the IC50 at 72 h in series [1] (setting [5]) was determined as 367 ± 8.4 µM. Also, the IC50 at 72 h in series [1] (setting [6]) worked out at 266 ± 16.8 µM. Also, in series [2], the “Amplitude of slow waves, Measured value” is reported as 5.34 ± 0.20 mV; the “Amplitude of spike potentials” value is 1.56 ± 0.17 mV; the “Number of slow waves, Measured value” was found to be 4.42 ± 0.41 min⁻¹; the “Number of spike potentials” value is 26.16 ± 0.26 min⁻¹. In series [2], the “effect on bioelectrical activity (slow waves, spike potentials)” value was “do not affect the BEA” and the “Changes in the membrane potential” value is given as 0%. Also, in series [3], the “5-HT3 expression, Response to Compound” value is recorded as “−” and the “5-HT3 expression in SM preparations” value is “no modulation on the 5-HT3R expression; also recorded: no 5-HT3 expression observed”. In series [4], the IC50 at 72 h was above 300 µM.

As to `CC(C)C(Cc1ccccc1)NC(=O)Cc1ccccc1` (stereo not shown) [Compound 4d, N-(3-methyl-1-phenylbutan-2-yl)-2-phenylacetamide], the IC50 at 72 h in series [1] (setting [5]) came to 244 ± 18.5 µM. The IC50 at 72 h in series [1] (setting [6]) is 328 ± 15.9 µM. For the same compound, in series [2], the “Amplitude of slow waves, Measured value” turned out to be 4.97 ± 0.29 mV; the “Amplitude of spike potentials” value is on record as 0 * mV; the “Number of slow waves, Measured value” came to 4.82 ± 0.24 min⁻¹; the “Number of spike potentials” value was 0 * min^−1. The “Changes in the membrane potential” value in series [2] amounted to 0%. Besides, in series [3], the “5-HT3 expression, Response to Compound” value is “+” and the “5-HT3 expression in SM preparations” value is given as “very weak non-specific effect; also recorded: weak 5-HT3 expression observed”. Also, the IC50 at 72 h in series [4] was above 300 µM.

Turning to `NCCc1c[nH]c2ccc(O)cc12` [Compound 5-HT, 5-hydroxytryptamine, reference compound], in series [3] (SM preparations incubated with 5-HT, one per compound series), the “5-HT3 expression, 5-HT” value was “++”. Also, the “5-HT3 expression in SM preparations” value in series [3] was “higher number of 5-HT3R positive cells per section and 5-HT3 expression observed in the myenteric plexus”.

Broadly, the IC50 is the concentration at which inhibition is half-maximal.
